Patent US9694078B2, “Tigecycline compositions and methods of preparation” (priority 2005, dated 2017)

Key:
[1] = test system: methicillin-resistant Staphylococcus aureus; conditions: cited from earlier work
[2] = existing composition, 1 mg/mL after dilution; cited from earlier work
[3] = oral; cited from earlier work
[4] = test system: vancomycin-resistant enterococci; conditions: cited from earlier work
[5] = test system: penicillin-resistant Streptococcus pneumoniae; conditions: cited from earlier work
[6] = Epimerization of minocycline versus tigecycline lyophilized at pH about 5.0, HPLC; type: physicochemical; conditions: lyophilized at pH about 5.0, stored 4 days at 40° C. and 75% relative humidity
Method: In another experiment, minocycline was lyophilized at a pH of about 5.0 and the lyophilized cake was stored for 20 days at 40° C. and 75% relative humidity. At the end of the 20 days, the cake was analyzed by HPLC. The epimer of minocycline was measured to be present at a level of 2.65% by mass. By comparison, when tigecycline was lyophilized at a pH of about 5.0 and the sample stored under the same conditions, but for only 4 days followed by HPLC analysis, the tigecycline epimer was measured to be at a level of 5.40%, over twice as much even though tigecycline was only stressed for ⅕^th as long as minocycline. Thus, tigecycline epimerizes much more readily than minocycline, and epimerization is a much more significant problem with tigecycline than it is for minocycline.

[7] = pH of tigecycline dissolved in water prior to lyophilization; type: physicochemical
Method: Tigecycline has such a short admixture time and the reconstitution time is essentially zero because in solution, tigecycline oxidation is relatively rapid. Under current manufacturing, storage, and administration conditions, the most prevalent form of degradation is via oxidation. The reason oxidation is the most prevalent form of degradation in previous formulations relates to the chemical structure of tigecycline. […] When tigecycline is dissolved in water prior to lyophilization, the pH is slightly basic (about 7.8). This is higher than the pKa of the phenolic group on tigecycline. Thus, in both water and saline solutions, the phenolic group becomes deprotonated and more susceptible to reaction with oxygen which is why tigecycline compounding and lyophilization occur under a nitrogen blanket. Accordingly, care to avoid unnecessary exposure to oxygen must be taken by hospital staff during reconstitution and dilution.

bacteria = conditions: compared with tigecycline; cited from earlier work

## CN(C)c1cc(NC(=O)CNC(C)(C)C)c(O)c2c1C[C@H]1C[C@H]3[C@H](N(C)C)C(O)=C(C(N)=O)C(=O)[C@@]3(O)C(O)=C1C2=O [Tigecycline]
[1]
  activity against methicillin-resistant Staphylococcus aureus: active
[2]
  time within which the diluted solution should be used: ≤ 6 h
[3]
  bioavailability when given orally: generally poor
[4]
  activity against vancomycin-resistant enterococci: active
[5]
  activity against penicillin-resistant Streptococcus pneumoniae: active
[6]
  level of the tigecycline epimer: 5.40%
[7]
  pH of solution in water: about 7.8

## CN(C)c1cc(NC(=O)CNC(C)(C)C)c(O)c2c1C[C@H]1C[C@H]3[C@@H](N(C)C)C(O)=C(C(N)=O)C(=O)[C@@]3(O)C(O)=C1C2=O [tigecycline epimer]
bacteria
  anti-bacterial efficacy: lacks the anti-bacterial efficacy of tigecycline
